Source: patent US9193731B2, “Antimicrobial compounds and methods of making and using the same” (Melinta Therapeutics, Inc., priority 2009, dated 2015)
Counter-ions that a name gives are not always drawn.

test system: Escherichia coli strain ATCC25922; experiment: standard microdilution assay to determine minimum inhibitory concentrations (MICs); format: cell-based; conditions: Escherichia coli strain ATCC25922, microdilution
Summary of the method: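 Broth microdilution MIC against E. coli ATCC25922, following CLSI protocols, typically in a 100 microliter final volume. Results reported as +/− relative to a 16 micrograms/ml cutoff.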

| SMILES | E. coli ATCC25922 MIC |
| --- | --- |
| N=C(N)NCCCNCc1ccc(-n2cc3cc(-c4ccc(S(=O)(=O)NC5CCOCC5)cc4)[nH]c3nc2=O)cc1 [Compound 864] | − (a “−” indicates that the compound has an MIC value greater than 16 micrograms/ml) |
| N=C(N)NCCCNCc1ccc(-n2cc3cc(-c4cc(CCCCN)cc(SC(F)(F)F)c4)[nH]c3nc2=O)cc1 [Compound 2046a] | + (a “+” indicates that the compound has an MIC value of 16 micrograms/ml or less) |
| COc1ccc(CN(C2CCNCC2)S(=O)(=O)c2ccc(-c3cc4cn(-c5ccc(C(=O)NCCCNC(=N)N)cc5)c(=O)nc4[nH]3)cc2)cc1[N+](=O)[O-] [Compound 1114] | + (a “+” indicates that the compound has an MIC value of 16 micrograms/ml or less) |
| N=C(N)NCCCNCc1ccc(-n2cc3cc(-c4cccc(OCCC5(N)CCCC5)c4)[nH]c3nc2=O)cc1 [Compound 1447] | + (a “+” indicates that the compound has an MIC value of 16 micrograms/ml or less) |
| NCCCNCc1ccc(-n2cc3cc(-c4ccc(C(NC5CCNCC5)C(F)(F)F)cc4)[nH]c3nc2=O)cc1 (stereo not drawn) [Compound 918] | + (a “+” indicates that the compound has an MIC value of 16 micrograms/ml or less) |
| N=C(N)NCCCNC(=O)c1ccc(-n2cc3cc(-c4ccc(S(=O)(=O)N(CC5CC5)C5CCNCC5)cc4)[nH]c3nc2=O)cc1 [Compound 996] | + (a “+” indicates that the compound has an MIC value of 16 micrograms/ml or less) |
| N=C(N)NCCCNCc1ccc(-n2cc3cc(-c4cccc(C(NCCN)C(F)(F)F)c4)[nH]c3nc2=O)cc1 (stereo not drawn) [Compound 2025a] | + (a “+” indicates that the compound has an MIC value of 16 micrograms/ml or less) |
| N=C(N)NCCCNCc1ccc(-n2cc3cc(-c4cccc(OCC(CN)OCC(F)(F)F)c4)[nH]c3nc2=O)cc1 (stereo not drawn) [Compound 1455] | + (a “+” indicates that the compound has an MIC value of 16 micrograms/ml or less) |
| N=C(N)NCCCNCc1ccc(-n2cc3cc(-c4cncc(CCCCN)c4)[nH]c3nc2=O)cc1 [Compound 2060a] | + (a “+” indicates that the compound has an MIC value of 16 micrograms/ml or less) |
| N=C(N)NCCCNCc1ccc(-n2cc3cc(-c4cccc(S(=O)(=O)NCCN)c4)[nH]c3nc2=O)cc1 [Compound 2007a] | + (a “+” indicates that the compound has an MIC value of 16 micrograms/ml or less) |
| N=C(N)NCCCN1CC=C(n2cc3cc(-c4ccc(S(=O)(=O)N(CC5CC5)C5CCNCC5)cc4)[nH]c3nc2=O)CC1 [Compound 969] | + (a “+” indicates that the compound has an MIC value of 16 micrograms/ml or less) |
| N=C(N)NCCCNC(=O)c1ccc(-n2cc3cc(-c4cccc(OC[C@@H](O)CN)c4)[nH]c3nc2=O)cc1 [Compound 1399] | + (a “+” indicates that the compound has an MIC value of 16 micrograms/ml or less) |
| CNCc1ccc(-n2cc3cc(-c4ccc(S(=O)(=O)N(CCCc5ccc(O)cc5)C5CCNCC5)cc4)[nH]c3nc2=O)cc1 [Compound 1064] | − (a “−” indicates that the compound has an MIC value greater than 16 micrograms/ml) |
| N=C(N)NCCCNCc1ccc(-n2cc3cc(-c4cc(OCC(F)CN)cc(-c5cccc(CN)c5)c4)[nH]c3nc2=O)cc1 (stereo not drawn) [Compound 2030a] | + (a “+” indicates that the compound has an MIC value of 16 micrograms/ml or less) |
| N=C(N)NCCCNCc1ccc(-n2cc3cc(-c4ccc(S(=O)(=O)N(Cc5ccc(Cl)c(Cl)c5)C5CCOCC5)cc4)[nH]c3nc2=O)cc1 [Compound 898] | − (a “−” indicates that the compound has an MIC value greater than 16 micrograms/ml) |
| N=C(N)NCCCNCC(O)Cn1cc2cc(-c3ccc(S(=O)(=O)NC4CCNCC4)cc3)[nH]c2nc1=O (stereo not drawn) [Compound 977] | + (a “+” indicates that the compound has an MIC value of 16 micrograms/ml or less) |
| N=C(N)NCCCNCc1ccc(-n2cc3cc(-c4ccc(C(NC5CN(C(=N)N)C5)C(F)(F)F)cc4)[nH]c3nc2=O)cc1 (stereo not drawn) [Compound 1432] | + (a “+” indicates that the compound has an MIC value of 16 micrograms/ml or less) |
| N=C(N)NCCNCC(O)Cn1cc2cc(-c3ccc(S(=O)(=O)NC4CCNCC4)cc3)[nH]c2nc1=O (stereo not drawn) [Compound 1108] | + (a “+” indicates that the compound has an MIC value of 16 micrograms/ml or less) |
| N=C(N)NCCCNCc1ccc(-n2cc3cc(-c4cc(C(=O)N5CCC(C(N)=O)CC5)cc(N5CCNCC5)c4)[nH]c3nc2=O)cc1 [Compound 911] | − (a “−” indicates that the compound has an MIC value greater than 16 micrograms/ml) |
| N=C(N)NCCCNCc1ccc(-n2cc3cc(-c4ccc(S(=O)(=O)N(Cc5cc(OC(F)(F)F)ccc5F)C5CCNCC5)cc4)[nH]c3nc2=O)cc1 [Compound 767] | + (a “+” indicates that the compound has an MIC value of 16 micrograms/ml or less) |
| N=C(N)NCCCNCc1ccc(-n2cc3cc(-c4cccc(OCC5CNC5)c4)[nH]c3nc2=O)cc1 [Compound 1418] | + (a “+” indicates that the compound has an MIC value of 16 micrograms/ml or less) |
| N=C(N)NCCCNCc1ccc(-n2cc3cc(-c4cc(OC(F)(F)F)cc(C(O)CCN)c4)[nH]c3nc2=O)cc1 (stereo not drawn) [Compound 2061a] | + (a “+” indicates that the compound has an MIC value of 16 micrograms/ml or less) |
| N=C(N)NCCCNCc1ccc(-n2cc3cc(-c4cc(CCNC(N)=O)cc(OCC(F)CN)c4)[nH]c3nc2=O)cc1 (stereo not drawn) [Compound 2012a] | − (a “−” indicates that the compound has an MIC value greater than 16 micrograms/ml) |
| Cn1c(CCCN(C2CCNCC2)S(=O)(=O)c2ccc(-c3cc4cn(-c5ccc(CNCCCNC(=N)N)cc5)c(=O)nc4[nH]3)cc2)nc2ccccc21 [Compound 841] | + (a “+” indicates that the compound has an MIC value of 16 micrograms/ml or less) |

same assay, conditions: Escherichia coli, ATCC25922, Escherichia coli strain ATCC25922, microdilution; read-out: E. coli ATCC25922 MIC

| MIC | SMILES |
| --- | --- |
| > 16 µg/mL | NCc1ccc(-n2cc3cc(-c4cccc(S(=O)(=O)N(CCOc5ccc(F)cc5)C5CCNCC5)c4)[nH]c3nc2=O)cc1 [Compound 1123] |
| > 16 µg/mL | NCc1ccc(-n2cc3cc(-c4cccc(S(=O)(=O)N(CCn5cccc5)C5CCNCC5)c4)[nH]c3nc2=O)cc1 [Compound 1187] |
| < 16 µg/mL | N=C(N)NCCCNCc1ccc(-n2cc3cc(-c4ccc(C(=O)NC5CCNCC5)cc4)[nH]c3nc2=O)cc1 [Compound 234] |
| > 16 µg/mL | NCc1ccc(-n2cc3cc(-c4ccc(S(=O)(=O)N(CCCN5CCOCC5)C5CCNCC5)cc4)[nH]c3nc2=O)cc1 [Compound 1038] |
| > 16 µg/mL | N=C1NCCCN1CCCCCn1cc2cc(-c3ccc(S(=O)(=O)NC4CCNCC4)cc3)[nH]c2nc1=O [Compound 925] |
| > 16 µg/mL | C=Cc1cc2cn(-c3ccc(C(=O)NCCCNC(=N)N)cc3)c(=O)nc2[nH]1 [Compound 1112] |
| > 16 µg/mL | N=C(N)NCCCNCc1ccc(-c2cn3cc(-c4ccc(C(=O)N5CCC(C(N)=O)C5)cc4)[nH]c3nc2=O)cc1 (stereo not drawn) [Compound 692] |
| > 16 µg/mL | NCCCNCc1ccc(-n2cc3cc(-c4ccsc4)[nH]c3nc2=O)cc1 [Compound 612] |
| < 16 µg/mL | N=C(N)NCCCNCc1ccc(-c2cn3cc(-c4ccc(C(=O)NC5CCNC5)cc4)[nH]c3nc2=O)cc1 (stereo not drawn) [Compound 705] |
| > 16 µg/mL | NCCCNCc1ccc(-n2cc3cc(CN4CCS(=O)(=O)CC4)[nH]c3nc2=O)cc1 [Compound 613] |
| > 16 µg/mL | NCCCNCc1ccc(-n2cc3cc(CN4CCOC4=O)[nH]c3nc2=O)cc1 [Compound 289] |
| < 16 µg/mL | N=C(N)NCCCNCc1ccc(-c2cn3cc(-c4ccc(S(=O)(=O)NC5CCNCC5)cc4)[nH]c3nc2=O)cc1 [Compound 772] |
| > 16 µg/mL | NCc1ccc(-n2cc3cc(-c4cccc(S(=O)(=O)N(CCC(N)=O)C5CCNCC5)c4)[nH]c3nc2=O)cc1 [Compound 1249] |
| < 16 µg/mL | NCCCNCc1ccc(-c2cn3cc(-c4ccc(C(=O)N5CCNCC5)cc4)[nH]c3nc2=O)cc1 [Compound 682, 6-{4-[(3-Amino-propylamino)-methyl]-phenyl}-2-[4-(piperazine-1-carbonyl)-phenyl]-1H-imidazo[1,2-a]pyrimidin-7-one] |
| > 16 µg/mL | NCCCN(CCCN)Cc1ccc(-n2cc3cc(-c4ccccc4C(F)(F)F)[nH]c3nc2=O)cc1F [Compound 318] |
| > 16 µg/mL | NCc1ccc(-n2cc3cc(-c4ccc(S(=O)(=O)NC5CCNCC5)c(Cl)c4)[nH]c3nc2=O)cc1 [Compound 245] |
| < 16 µg/mL | CN1CCN(C(=O)c2ccc(-c3cn4cc(-c5ccc(CNCCCNC(=N)N)cc5)c(=O)nc4[nH]3)cc2)CC1 [Compound 706] |
| > 16 µg/mL | NCCCCN1CCC(n2cc3cc(-c4ccc(F)cc4)[nH]c3nc2=O)C1 (stereo not drawn) [Compound 559] |
| > 16 µg/mL | NCCCNCc1ccc(-n2cc3cc(CCN4CCS(=O)(=O)CC4)[nH]c3nc2=O)cc1 [Compound 784] |
| > 16 µg/mL | NCc1ccc(-n2cc3cc(-c4cccc(CN5CCNCC5)c4)[nH]c3nc2=O)cc1 [Compound 1232] |
| > 16 µg/mL | NCc1ccc(-n2cc3cc(-c4cccc(OCCCc5ccc(Cl)cc5)c4)[nH]c3nc2=O)cc1 [Compound 1128] |
| > 16 µg/mL | CNCc1ccc(-n2cc3cc(-c4ccc(S(=O)(=O)N(CCCn5ccc(C(F)(F)F)n5)C5CCNCC5)cc4)[nH]c3nc2=O)cc1 [Compound 1021] |
| > 16 µg/mL | NCc1ccc(-n2cc3cc(-c4ccccc4OCCCN4CCNCC4)[nH]c3nc2=O)cc1 [Compound 1117] |
| > 16 µg/mL | NCCCCN1CC=C(n2cc3cc(-c4ccc(F)cc4)[nH]c3nc2=O)CC1 [Compound 511] |
| > 16 µg/mL | CN(Cc1ccccc1)Cc1cc2cn(-c3ccc(CNCCCN)cc3)c(=O)nc2[nH]1 [Compound 905] |

| SMILES | MIC |
| --- | --- |
| NCCCN(CCCN)Cc1ccc(-n2cc3cc(-c4ccc(S(=O)(=O)NC5CN6CCC5CC6)cc4)[nH]c3nc2=O)cc1 (stereo not drawn) [Compound 201] | < 16 µg/mL |

same assay, conditions: Escherichia coli, ATCC25922, read-out: E. coli ATCC25922 MIC

| SMILES | MIC |
| --- | --- |
| NCCCNCc1ccc(-c2cn3c(nc2=O)[nH]c2ccccc23)cc1 [Compound 601, 3-{4-[(3-Amino-propylamino)-methyl]-phenyl}-10H-benzo[4,5]imidazo[1,2-a]pyrimidin-2-one hydrochloride salt] | > 16 µg/mL |
